Earlier results on three compounds are cited in paper PMC3907537, “Evaluation of the Endothelin Receptor Antagonists Ambrisentan, Bosentan, Macitentan, and Sitaxsentan as Hepatobiliary Transporter Inhibitors and Substrates in Sandwich-Cultured Human Hepatocytes” (PLoS ONE, 2014).

Each structure is given as a SMILES string. Values joined by “and” are separate entries in the source; they are usually repeats but may differ in a detail not shown here. Identical values can stand only once. Like-named read-outs stand apart in the source and are kept apart here.

For data set [1] the following is noted: cited from earlier work.
Data set [2] relates to human Pgp. Set-up: method as in PMID 22348175. Particulars: at doses up to 50 µM, Kim et al. ref 46; cited from earlier work.
Data set [3] addresses T1, OATP1B3 (Homo sapiens, UniProt Q9NPD5).
T1 construct: host or cells: CHO
T1 sequence (Q9NPD5 1-702): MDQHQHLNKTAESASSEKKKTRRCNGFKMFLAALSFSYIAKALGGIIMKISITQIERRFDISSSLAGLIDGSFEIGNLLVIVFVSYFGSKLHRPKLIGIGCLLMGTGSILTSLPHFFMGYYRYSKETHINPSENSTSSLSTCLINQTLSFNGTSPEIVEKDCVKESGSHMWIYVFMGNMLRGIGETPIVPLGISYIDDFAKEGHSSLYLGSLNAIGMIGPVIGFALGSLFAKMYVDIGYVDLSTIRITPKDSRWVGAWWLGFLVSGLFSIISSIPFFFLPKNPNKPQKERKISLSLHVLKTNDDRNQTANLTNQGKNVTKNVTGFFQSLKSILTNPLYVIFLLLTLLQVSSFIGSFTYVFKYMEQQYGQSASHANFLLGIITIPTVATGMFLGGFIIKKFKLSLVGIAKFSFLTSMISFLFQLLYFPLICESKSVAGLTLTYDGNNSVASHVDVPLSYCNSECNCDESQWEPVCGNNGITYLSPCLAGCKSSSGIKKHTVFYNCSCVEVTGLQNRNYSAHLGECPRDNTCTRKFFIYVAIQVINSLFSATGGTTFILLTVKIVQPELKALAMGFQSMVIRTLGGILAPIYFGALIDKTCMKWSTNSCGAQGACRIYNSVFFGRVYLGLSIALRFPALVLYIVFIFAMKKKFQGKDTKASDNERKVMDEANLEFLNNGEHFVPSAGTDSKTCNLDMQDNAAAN
The note with it: cited from earlier work.

Data set [4] has as its system human OATP1B1. The note with it: cited from earlier work.
For data set [5], the system named is murine Pgp. Set-up: method as in PMID 23353592. The note with it: cited from earlier work.
Data set [6] concerns the target T2, MRP2 (Homo sapiens, UniProt Q92887).
T2 construct: purchased Solvo Biotechnology, Budaors, Hungary; host or cells: Sf9 insect cells (membrane vesicles)
On the set-up: method as in earlier work. Particulars: data previously reported ref 35; cited from earlier work.

The target of data set [7] is T3, BCRP (Homo sapiens, UniProt Q9UNQ0).
T3 construct: host or cells: MDCKII
T3 sequence (Q9UNQ0 1-655): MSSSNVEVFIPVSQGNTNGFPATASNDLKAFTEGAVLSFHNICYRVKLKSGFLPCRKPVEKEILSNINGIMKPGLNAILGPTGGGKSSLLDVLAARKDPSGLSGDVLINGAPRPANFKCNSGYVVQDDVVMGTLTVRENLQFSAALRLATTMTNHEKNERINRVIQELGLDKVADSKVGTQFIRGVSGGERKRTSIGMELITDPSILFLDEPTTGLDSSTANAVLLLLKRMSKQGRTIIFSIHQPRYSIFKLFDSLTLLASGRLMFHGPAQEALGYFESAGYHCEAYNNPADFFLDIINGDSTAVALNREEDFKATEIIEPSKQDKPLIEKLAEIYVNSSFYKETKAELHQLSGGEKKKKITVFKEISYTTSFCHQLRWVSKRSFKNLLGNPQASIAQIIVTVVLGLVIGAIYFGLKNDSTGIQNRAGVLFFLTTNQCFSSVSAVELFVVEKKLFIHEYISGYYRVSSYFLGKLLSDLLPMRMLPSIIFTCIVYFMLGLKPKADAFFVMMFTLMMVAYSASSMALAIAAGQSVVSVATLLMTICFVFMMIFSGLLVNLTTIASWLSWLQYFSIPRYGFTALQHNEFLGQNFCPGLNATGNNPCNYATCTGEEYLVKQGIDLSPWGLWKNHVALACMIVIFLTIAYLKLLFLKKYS
Set-up: method as in earlier work. Particulars: data previously reported, similar conditions ref 35; cited from earlier work.

Data set [8] concerns the target T4, BSEP (Homo sapiens, UniProt O95342).
T4 construct: purchased Solvo Biotechnology, Budaors, Hungary; host or cells: Sf9 insect cells (membrane vesicles)
On the set-up: method as in earlier work. The note with it: data previously reported, same assay conditions ref 35; cited from earlier work.

T2 sequence (Q92887 whole entry): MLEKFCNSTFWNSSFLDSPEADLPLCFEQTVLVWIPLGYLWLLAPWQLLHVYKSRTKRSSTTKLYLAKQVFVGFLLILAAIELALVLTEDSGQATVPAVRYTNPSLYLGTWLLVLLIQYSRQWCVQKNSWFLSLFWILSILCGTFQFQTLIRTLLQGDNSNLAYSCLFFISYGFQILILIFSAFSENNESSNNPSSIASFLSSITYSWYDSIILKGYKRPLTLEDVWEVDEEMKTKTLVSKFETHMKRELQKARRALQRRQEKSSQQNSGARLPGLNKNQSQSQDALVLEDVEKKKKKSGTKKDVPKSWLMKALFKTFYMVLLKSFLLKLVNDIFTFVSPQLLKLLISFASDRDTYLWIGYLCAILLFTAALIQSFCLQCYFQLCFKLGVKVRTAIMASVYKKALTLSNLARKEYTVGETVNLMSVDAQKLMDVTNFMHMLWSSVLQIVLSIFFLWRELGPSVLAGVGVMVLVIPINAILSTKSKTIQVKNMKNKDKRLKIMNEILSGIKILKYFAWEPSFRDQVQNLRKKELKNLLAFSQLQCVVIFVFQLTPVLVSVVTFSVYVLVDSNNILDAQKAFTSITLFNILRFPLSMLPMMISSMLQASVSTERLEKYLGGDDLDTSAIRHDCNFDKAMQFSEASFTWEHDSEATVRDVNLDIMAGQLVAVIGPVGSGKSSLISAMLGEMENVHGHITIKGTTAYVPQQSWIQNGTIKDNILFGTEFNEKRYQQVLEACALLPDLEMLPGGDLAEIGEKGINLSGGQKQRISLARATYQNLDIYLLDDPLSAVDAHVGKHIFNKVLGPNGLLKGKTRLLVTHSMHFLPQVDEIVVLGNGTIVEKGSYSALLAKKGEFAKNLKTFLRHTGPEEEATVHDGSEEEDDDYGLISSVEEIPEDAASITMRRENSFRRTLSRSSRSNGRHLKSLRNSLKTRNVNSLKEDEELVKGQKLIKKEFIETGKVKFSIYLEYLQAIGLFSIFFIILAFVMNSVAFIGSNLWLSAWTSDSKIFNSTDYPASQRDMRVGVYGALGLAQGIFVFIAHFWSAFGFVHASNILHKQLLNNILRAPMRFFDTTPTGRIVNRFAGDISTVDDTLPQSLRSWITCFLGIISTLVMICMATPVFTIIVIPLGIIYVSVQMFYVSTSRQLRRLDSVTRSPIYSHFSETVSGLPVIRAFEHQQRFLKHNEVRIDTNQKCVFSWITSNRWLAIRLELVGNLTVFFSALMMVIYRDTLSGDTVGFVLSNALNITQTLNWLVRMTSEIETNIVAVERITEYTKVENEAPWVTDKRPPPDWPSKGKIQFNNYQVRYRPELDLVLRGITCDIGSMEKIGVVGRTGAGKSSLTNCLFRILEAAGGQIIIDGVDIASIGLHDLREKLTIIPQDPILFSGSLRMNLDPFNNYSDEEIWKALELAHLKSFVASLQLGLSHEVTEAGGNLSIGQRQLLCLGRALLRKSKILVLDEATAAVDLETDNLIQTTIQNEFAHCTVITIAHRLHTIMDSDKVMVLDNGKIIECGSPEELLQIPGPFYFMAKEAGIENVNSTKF
T4 sequence (O95342 whole entry): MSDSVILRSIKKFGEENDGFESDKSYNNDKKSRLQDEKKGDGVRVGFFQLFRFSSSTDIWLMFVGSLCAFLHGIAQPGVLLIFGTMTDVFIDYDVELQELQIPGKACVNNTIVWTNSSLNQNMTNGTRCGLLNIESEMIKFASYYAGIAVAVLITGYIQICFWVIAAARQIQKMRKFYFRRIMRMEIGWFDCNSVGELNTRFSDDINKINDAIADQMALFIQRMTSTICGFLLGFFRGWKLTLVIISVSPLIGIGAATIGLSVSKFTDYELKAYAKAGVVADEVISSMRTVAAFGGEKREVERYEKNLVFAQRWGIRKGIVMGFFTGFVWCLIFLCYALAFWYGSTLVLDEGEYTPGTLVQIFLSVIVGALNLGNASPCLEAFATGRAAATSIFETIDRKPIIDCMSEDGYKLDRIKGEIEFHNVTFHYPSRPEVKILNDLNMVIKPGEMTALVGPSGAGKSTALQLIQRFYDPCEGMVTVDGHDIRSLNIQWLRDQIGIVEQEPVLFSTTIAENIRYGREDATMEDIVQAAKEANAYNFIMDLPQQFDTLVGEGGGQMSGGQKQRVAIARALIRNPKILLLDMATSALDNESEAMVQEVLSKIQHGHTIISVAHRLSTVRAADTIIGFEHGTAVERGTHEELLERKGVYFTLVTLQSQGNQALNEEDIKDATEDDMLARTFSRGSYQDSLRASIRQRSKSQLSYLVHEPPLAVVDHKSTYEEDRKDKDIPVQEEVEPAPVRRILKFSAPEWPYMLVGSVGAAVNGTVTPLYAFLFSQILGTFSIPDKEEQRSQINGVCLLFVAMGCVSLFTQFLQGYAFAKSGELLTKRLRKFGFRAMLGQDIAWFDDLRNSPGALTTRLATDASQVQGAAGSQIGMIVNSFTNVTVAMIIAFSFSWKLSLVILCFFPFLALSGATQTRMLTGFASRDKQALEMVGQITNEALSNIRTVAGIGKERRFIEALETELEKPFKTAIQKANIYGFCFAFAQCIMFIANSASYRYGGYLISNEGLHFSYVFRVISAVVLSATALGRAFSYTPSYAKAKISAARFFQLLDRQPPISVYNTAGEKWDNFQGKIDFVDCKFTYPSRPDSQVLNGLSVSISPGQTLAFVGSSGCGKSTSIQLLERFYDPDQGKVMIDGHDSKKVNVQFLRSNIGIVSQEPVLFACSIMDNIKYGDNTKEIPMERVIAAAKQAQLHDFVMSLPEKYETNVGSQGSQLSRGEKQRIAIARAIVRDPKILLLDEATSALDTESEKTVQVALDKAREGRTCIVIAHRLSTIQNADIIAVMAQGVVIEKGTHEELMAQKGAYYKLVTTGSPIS

Regarding `COC(c1ccccc1)(c1ccccc1)[C@H](Oc1nc(C)cc(C)n1)C(=O)O` [ambrisentan], the “patients with serum aminotransferase concentrations >3 times ULN” value in data set [1] (ARIES studies, n = 261 ref 11) was “none”. Also, in data set [1] (ARIES-E long-term extension, mean follow-up of 1.4 years ref 12), the “incidence of elevated aminotransferase >3 times ULN” value is on record as 1.8%.
In general, IC50 refers to the point on the concentration scale where inhibition reaches its midpoint. `CCCNS(=O)(=O)Nc1ncnc(OCCOc2ncc(Br)cn2)c1-c1ccc(Br)cc1` [macitentan]: in data set [2], the “inhibition of human Pgp” value is “no inhibition”. Further, the IC50 in data set [3] (Bruderer et al. ref 36) is 11.8 µM; in data set [3], 10 µM; in data set [4] (Bruderer et al. ref 36, read-out: OATP1B1 IC50), 6.3 µM; in data set [4] (read-out: human OATP1B1 IC50), 4.4 µM; in data set [5], 4.4 µM and 4 µM.
Consider `Cc1cc2c(cc1CC(=O)c1sccc1S(=O)(=O)Nc1onc(C)c1Cl)OCO2` [sitaxsentan], for which the figures for the IC50 in data set [6], in data set [7] and in data set [8] were over 100 µM, over 100 µM and 25 µM, respectively.
